From ChEMBL document CHEMBL1123640, “Synthesis and antiviral activity of carbocyclic analogues of xylofuranosides of 2-amino-6-substituted-purines and 2-amino-6-substituted-8-azapurines” (1987)
≈ marks a conversion by molar mass, not a printed value.

Key:
Assay type in all cases: functional
P388 = assay: Tested for inhibitory activity against P-388 leukemia cells; conditions: Mus musculus, read-out: ED50 (the source's name)
Human alphaherpesvirus 1 [1] = assay: The compound was tested in vitro for anti viral activity against Herpes simplex virus type 1 (strain 377)
Human alphaherpesvirus 1 [2] = assay: Minimum inhibitory concentration required to inhibit Herpes simplex virus type 1 (strain 377) induced cytopathogenic effects by 50%.
Human alphaherpesvirus 1 [3] = assay: The compound was tested in vitro for definite and significant anti viral activity against Herpes simplex virus type 1 (strain 377); value indicates definite and significant antiviral activity

Compound	EC50 (P388) [µM]	Virus rating (Human alphaherpesvirus 1 [1])	MIC50 (Human alphaherpesvirus 1 [2]) [µg/mL]	Virus rating (Human alphaherpesvirus 1 [3])
Nc1nc(N)c2ncn(C3CC(CO)C(O)C3O)c2n1 (stereo not drawn)	39	2.7	85 (≈ 303 µM)	–
Nc1nc(Cl)c2nnn(C3CC(CO)C(O)C3O)c2n1 (stereo not drawn)	50	0.6	100 (≈ 333 µM)	–
Nc1nc(Cl)c2ncn(C3CC(CO)C(O)C3O)c2n1 (stereo not drawn)	220	1.8	100 (≈ 334 µM)	–
Nc1nc(N)c2nnn(C3CC(CO)C(O)C3O)c2n1 (stereo not drawn)	5.3	–	66.9 (≈ 238 µM)	2
COc1nc(N)nc2c1nnn2C1CC(CO)C(O)C1O (stereo not drawn)	63	–	–	–
